Legend:
Assay type in all cases: in vivo
[1] = tested on: diarrhea caused by the continuous administration of a chemotherapeutic agent in Balb/c mice; assay: Examples 444-469 (Table 9): oral CDK inhibitor, diarrhea caused by continuous administration of a chemotherapeutic agent; settings: CDK inhibitor oral 150 mg/kg once a day
Text: (§1) Balb/c mice were fed for 1 week, and then divided into groups. The experiment was divided into a control group, a chemotherapeutic agent group, and a CDK inhibitor group, each of which comprised 10 mice, to perform the administration experiment, for which the administration dosage, mode, time and frequency were shown in Table 9. The control group: being intragastrically administered with the same solvent as that used in the CDK inhibitor group (the time was shown in Table 9), and then being injected/intragastrically administered with the same solvent as that used in the chemotherapeutic agent group (the administration mode was shown in Table 9): the chemotherapeutic agent group: being intragastrically administered with the same solvent as that used in the CDK inhibitor group (the time was shown in Table 9), and then being injected/intragastrically administered with the chemotherapeutic agent (the type, administration mode, dosage and duration time were shown in Table 9): the CDK inhibitor group: being intragastrically administered with the CDK inhibitor (the time was shown in Table 9), and then being administered with the chemotherapeutic agent (the type, administration mode, dosage and duration time were shown in Table 9).
The scoring of diarrhea can refer to the method of Akinobu Kurita (Cancer Chemother Pharmacol 2000: 46:211-20.), Grade 0: normal feces: Grade 1: mild diarrhea, the stools is slightly wet and soft: Grade 2: moderate diarrhea, loose stools and mild perianal contamination: Grade 3: severe diarrhea, watery stools and accompanied by severe perianal staining (see FIG. 1). It is regarded as effective remission when the diarrhea grading of mice in the CDK inhibitor group is reduced compared with the average diarrhea grading of mice in the chemotherapeutic agent group.
The diarrhea grading of mice was observed and recorded every day. At the end of the experiment, the number of mice in the CDK inhibitor group whose diarrhea grading was lower than that of mice in the chemotherapeutic agent group was recorded. Table 9 lists various animal experiment combinations of chemotherapeutic agents and CDK inhibitors, as well as the corresponding experimental results. (Relative remission rate %=the number of mice in the CDK inhibitor group whose diarrhea has been effectively relieved/the total number of mice in the CDK inhibitor group*100%. The establishment rate of diarrhea model in the chemotherapeutic agent group was 50%-80%, that is, about 5-8 of 10 mice developed diarrhea during the experiment, and there were cases of individual mice death or not developing diarrhea.)

[2] = tested on: constipation caused by the continuous administration of a chemotherapeutic agent in Balb/c mice; assay: Examples 470-481 (Table 10): oral CDK inhibitor, constipation caused by continuous administration of a chemotherapeutic agent; settings: Fluorouracil (5-Fu) intraperitoneal injection 100 mg/kg once a day
Text: as §1, with “10.” for “9.”, “10),” for “9),”, “10):” for “9):”, “10).” for “9).”
The feces reduction rate was calculated with reference to the method of Ji Eun Kim (Lab Anim Res. 2016 December: 32(4): 231-240.). Feces reduction rate (%)=(the control group−the chemotherapeutic agent group or the CDK inhibitor group)/the control group*100%
It is regarded as effective remission when the feces reduction rate of mice in the CDK inhibitor group is reduced compared with that in the chemotherapeutic agent group.
The feces amount of mice within 3 hours was observed and recorded every day. At the end of the experiment, the number of mice in the CDK inhibitor group whose feces reduction rate was lower than that of mice in the chemotherapeutic agent group was recorded. Table 10 lists various animal experiment combinations of chemotherapeutic agents and CDK inhibitors, as well as the corresponding experimental results.

[3] = tested on: Chemotherapeutic agent-caused constipation models of Balb/c mice; assay: Examples 272-342 (Table 5): oral CDK inhibitor, relief of constipation caused by a chemotherapeutic agent; settings: CDK inhibitor oral 150 mg/kg single;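 note: percent of treated mice relieved versus chemotherapy group by feces reduction rate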
In short: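 Balb/c mice, 10 per group: control, chemotherapeutic agent alone, or intragastric CDK inhibitor followed by the chemotherapeutic agent. Feces produced within 3 hours were recorded daily, and feces reduction rate (%) was calculated relative to the control group.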

## CC(=O)c1c(C)c2cnc(Nc3ccc(N4CCNCC4)cn3)nc2n(C2CCCC2)c1=O [Palbociclib]
[1]; Examples 444-447 (one value printed; 4 h, 6 h, 8 h, 12 h before), Fluorouracil (5-Fu) intraperitoneal injection 70 mg/kg once a day, for 3 days, for 3 days, cycle 10 days
  Relative remission rate: 70%
[1]; Examples 448-451 (one value printed; 4 h, 6 h, 8 h, 12 h before), Fluorouracil (5-Fu) intraperitoneal injection 70 mg/kg once a day, for 5 days, for 5 days, cycle 9 days
  Relative remission rate: 60%
[1]; Examples 462-465 (one value given; 2 h, 4 h, 6 h, 8 h before), Capecitabine oral administration 1000 mg/kg (printed 100/0 wrapped) once a day, for 7 days, for 7 days, cycle 14 days
  Relative remission rate: 0%
[1]; Examples 466-469 (one value given; 2 h, 4 h, 6 h, 8 h before), Capecitabine oral administration 1000 mg/kg (printed 100/0 wrapped) once a day, for 14 days, for 14 days, cycle 14 days
  Relative remission rate: 10%
[2]; Examples 470-473 (one value given; 2 h, 4 h, 6 h, 8 h before), for 3 days, CDK inhibitor oral 150 mg/kg once a day, for 3 days, cycle 10 days
  Remission rate: 40%
[2]; Examples 474-477 (one value given; 2 h, 4 h, 6 h, 8 h before), for 5 days, CDK inhibitor oral 125 mg/kg once a day, for 5 days, cycle 9 days
  Remission rate: 50%
[2]; Examples 478-481 (one value given; 2 h, 4 h, 6 h, 8 h before), for 7 days, CDK inhibitor oral 125 mg/kg once a day, for 7 days, cycle 10 days
  Remission rate: 10%
[3]; Example 293, Fluorouracil (5-Fu) oral administration 300 mg/kg single, 8 h before, cycle 7 days
  Relative remission rate: 50%
[3]; Example 304, Irinotecan (CPT-11) intraperitoneal injection 260 mg/kg single, 0.5 h before, cycle 7 days
  Relative remission rate: 40%
[3]; Example 305, Irinotecan (CPT-11) intraperitoneal injection 260 mg/kg single, 4 h before, cycle 7 days
  Relative remission rate: 60%
[3]; Example 306, Irinotecan (CPT-11) intraperitoneal injection 260 mg/kg single, 8 h before, cycle 7 days
  Relative remission rate: 80%
[3]; Example 307, Irinotecan (CPT-11) intraperitoneal injection 260 mg/kg single, 12 h before, cycle 7 days
  Relative remission rate: 70%
[3]; Example 308, Irinotecan (CPT-11) intraperitoneal injection 260 mg/kg single, 24 h before, cycle 7 days
  Relative remission rate: 30%
[3]; Example 309, Irinotecan (CPT-11) intraperitoneal injection 260 mg/kg single, 48 h before, cycle 7 days
  Relative remission rate: 0%
[3]; Example 333, Cytarabine (Ara-C) intravenous injection 600 mg/kg single, 6 h before, cycle 8 days
  Relative remission rate: 50%

— patent US20240293413A1, “COMPOUND AND METHOD FOR TREATING CHEMOTHERAPY-RELATED GASTROINTESTINAL SIDE EFFECTS” (ONQUALITY PHARMACEUTICALS CHINA LTD., priority 2021, published 2024)
